Where “and” joins values, the source holds several entries; their conditions need not be identical. Equal values may be shown once. Entries after “also recorded” stand apart in the source; their conditions may differ. Read-outs that look alike come from different tables or passages of the source.
How the values were obtained:
[1] = system: NIH3T3 murine fibroblasts; experiment: Cytotoxicity test using the Alamar Blue assay; format: cell-based; details: Mus musculus, 48 h, tested at 50 µg/mL, read-out: IC50 (toxicity to fibroblasts)
Method: The NHI-3T3 cell line of mouse fibroblasts was grown in DMEN medium supplemented with 10% fetal bovine serum, 2 mM glutamine, 100 µg/mL streptomycin and 100 U/mL penicillin, and incubated at 37 °C with a 5% atmosphere of CO2. For assays, the cells were plated in 96-well plates (10^4 cells per well) and the Alamar Blue^TM assay was performed using previously described procedures. Briefly, after 24 h, the compounds were dissolved in DMSO and added to each well to give final concentrations of 50 µg/mL. Plates were incubated for 48 h. Control groups had final well concentrations of 0.1% DMSO. Two hours before the end of the incubations, 10 µL of Alamar Blue^TM was added to each well. The fluorescent signal was monitored with a multiplate reader using 530–560 nm excitation and 590 nm emission wavelengths.

[2] = system: multi-drug resistant K1 strain of Plasmodium falciparum; experiment: In vitro antiplasmodial assay, inhibition of growth of parasites by optical microscopy; format: cell-based; details: for IC50: Plasmodium falciparum, K1, 48 h, read-out: IC50 ± SD; for Result: activity class from IC50 in µM, K1 strain
Method: The in vitro antiplasmodial test was performed as previously described. […] Sample solutions were applied to the wells of 96-well test plates containing red blood cell suspension having initial parasitemia of 1.5%. […] After incubation, the contents of the wells were evaluated by optical microscopy. The inhibition of the growth of parasites (IGP%) was evaluated as a percentage by comparison with controls:
IGP% = 100 × [1 – (parasitemia with sample/parasitemia of untreated controls)]

[3] = system: chloroquine-resistant Fc M29-Cameroon strain of Plasmodium falciparum; set-up: method as in PMID 21612900; details: cited from earlier work
[4] = system: K1 strain of P. falciparum; set-up: method as in PMID 17568942, PMID 23092722; details: cited from earlier work
[5] = cited from earlier work
Plasmodium berghei = system: Plasmodium berghei; set-up: method as in PMID 23092722; details: Plasmodium berghei-infected mice, daily doses of 50-100 mg/kg/day, 4-day suppressive test; cited from earlier work
[6] = P. falciparum K1 strain, 48 h incubation

Structure (SMILES)	IC50 [1] [µg/mL]	IC50 [2, 6]	Result [2]	also measured
COC(=O)[C@@H]1[C@H]2Cc3c4[nH]c5ccccc5c4cc[n+]3C[C@@H]2CC[C@H]1O [Compound 3, 3,4,5,6-tetradehydro-β-yohimbine]	> 50	39.9 ± 7.7 µM	I (IC50 > 20.0 µM = inactive (I))	melting point: 260 to 264 °C
CC=C1C[N+]23CCC1CC21Nc2ccccc2C1(O)CC3 (stereo not shown) [Compound 4, 19E-hunteracine]	> 50	> 176 µM	I (IC50 > 20.0 µM = inactive (I))	melting point: 343 to 343.3 °C
COC(=O)[C@@H]1[C@H]2CC3c4[nH]c5ccccc5c4CCN3C[C@@H]2CC[C@H]1O (stereo partly drawn) [Compound 5, β-yohimbine]	–	–	–	IC50 [3]: > 1 µg/mL
COC(=O)[C@@H]1[C@H]2C[C@H]3c4[nH]c5ccccc5c4CCN3C[C@@H]2CC[C@@H]1O [Compound 6, yohimbine]	–	–	–	IC50 [3]: > 1 µg/mL
Cc1nccc2c(C)c3[nH]c4ccccc4c3cc12 [Compound 8, olivacine]	–	–	–	in vitro antiplasmodial activity (in words) [4]: significant in vitro antiplasmodial activity; cytotoxicity (in words) [5]: low cytotoxicity; in vivo antimalarial activity (in words) (Plasmodium berghei): high in vivo antimalarial activity
CCC1C2CCN(C)C1c1c([nH]c3ccccc13)C2=O (stereo not drawn) [Compound 11, 20-epi-dasycarpidone]	> 50	4.5 µg/mL and 16.7 µM	MA (IC50 5–20 µM = moderately active (MA))	melting point: 164.3 to 165.3 °C; in vitro antiplasmodial activity (in words) ([2]; P. falciparum K1 strain): active; also recorded: moderate inhibitory activity
C/C=C1\CN2CCc3c([nH]c4ccccc34)CC1CC2 (stereo not shown) [Compound 12, 20(E)-nor-subincanadine E]	> 50	54.3 ± 10.5 µM	I (IC50 > 20.0 µM = inactive (I))	–
CC(=O)N1c2c(O)cccc2C23CC[N+]4=C2C(CC(=O)O)(CCC4)CCC13 (stereo not shown) [Compound 13, 12-hydroxy-N-acetyl-21(N)-dehydroplumeran-18-oic acid]	> 50	> 135 µM	I (IC50 > 20.0 µM = inactive (I))	–
CC[C@@]12CCCN3CC[C@]4(c5ccc(OC)c(O)c5N(C(C)=O)[C@@H]4CC1)[C@H]32 [aspidocarpine]	–	–	–	in vitro antiplasmodial activity (in words) [4]: significant in vitro antiplasmodial activity
CCN(CC)CCCC(C)Nc1ccnc2cc(Cl)ccc12 (stereo not shown) [chloroquine diphosphate, reference compound]	–	–	A (0.1 < IC50 < 5 µM = active (A))	IC50 [2]: 0.17 µg/mL and 330 nM
Cc1c2ccncc2c(C)c2c1[nH]c1ccccc12 [ellipticine, reference compound]	–	–	–	in vitro antiplasmodial activity (in words) [4]: significant in vitro antiplasmodial activity; cytotoxicity (in words) [5]: low cytotoxicity; in vivo antimalarial activity (in words) (Plasmodium berghei): high in vivo antimalarial activity
C=C[C@H]1C[N@@]2CC[C@H]1C[C@H]2[C@H](O)c1ccnc2ccc(OC)cc12 [quinine sulphate, reference compound]	–	0.12 µg/mL and 300 nM	–	–

From publication PMC6270234, “Chemical Composition of Aspidosperma ulei Markgr. and Antiplasmodial Activity of Selected Indole Alkaloids” (Molecules, 2013)
